{"source": "a melting point compilation (Tetko et al.; mined from patent text by program, amines drawn as free bases though some values may be those of a salt)", "data": [{"units": {"melting point": "°C"}, "values": [{"smiles": "CN(C)C=C(C#N)C(=O)Nc1c(F)cccc1F", "melting point": "180 to 181"}, {"smiles": "CC(C)CCS(=O)(=O)NC(=O)/C=C/c1cc(OC2CCOCC2)nn1Cc1ccc(C(F)(F)F)cc1Cl", "melting point": "150 to 152"}, {"smiles": "CCOC(=O)c1c2n(c3c(Cl)c(N4CCC(N(C)C)C4)c(F)cc3c1=O)C(C)S2", "note": "(configuration not stated)", "melting point": "131 to 133"}, {"smiles": "O=C(O)c1cccc(-c2cc(-c3ccc(Cl)cc3)no2)c1", "melting point": "265 to 266"}, {"smiles": "C[C@H](Nc1c(-c2c(F)cc(OCCCN(C)C)cc2F)c(Br)nc2ncnn12)C(F)(F)F", "melting point": "40 to 42"}, {"smiles": "COc1cc2c(c(OC(C)=O)c1)C1CCC3(C)C(OC(C)=O)CCC3C1CC2", "note": "(configuration not stated)", "melting point": "120 to 121"}, {"smiles": "CN(C)C(=O)c1cc(Cl)ccc1N", "melting point": "97 to 98"}, {"smiles": "Clc1ccc(-c2nc(Cl)cc(Cl)n2)cc1", "melting point": "120 to 121"}, {"smiles": "O=C(c1ccccc1Cl)c1c(O)nn(-c2c(Cl)cc(Cl)cc2Cl)c1N1C(=O)c2ccccc2C1=O", "melting point": "245 to 246"}, {"smiles": "[N-]=[N+]=CC(=O)OC/C=C/c1ccc(NC(=O)OCc2ccccc2)cc1F", "melting point": "93 to 96"}, {"smiles": "CCCCCCCCCCCCCCCCOc1cc(OC)c(N)cc1OC", "melting point": 61}, {"smiles": "CC(C)[Si](C#Cc1ccc(-c2nc3cc(C#N)c(C#N)cc3[nH]2)cc1)(C(C)C)C(C)C", "melting point": "347 to 348"}, {"smiles": "CCC1CCC(Oc2cc(F)cc(C(=O)Nc3ccc(OCCN4CCOCC4)c4ccccc34)c2)CC1", "note": "(configuration not stated)", "melting point": "102 to 105"}, {"smiles": "CN(C)c1nonc1-c1nc2ccccc2n1CC(=O)c1ccc(Cl)cc1", "melting point": "120 to 123"}, {"smiles": "CCOC(=O)COc1cc(O)c2c(=O)cc(-c3ccc(OC)c(OCC(=O)N4CCN(Cc5ccc(OC)c(OC)c5OC)CC4)c3)oc2c1", "melting point": "105 to 106"}, {"smiles": "C[Si](C)(C)OC(CCl)(Cn1cncn1)c1ccc(F)cc1F", "note": "(configuration not stated)", "melting point": "59 to 61"}, {"smiles": "O=P(ONc1ccccc1)(ONc1ccccc1)Oc1ccccc1", "melting point": "176 to 178"}, {"smiles": "CCC(CCCN)Nc1cc(OC)c(OC)c2c(C)ccnc12", "note": "(configuration not stated)", "melting point": "136 to 137"}, {"smiles": "CC(=O)Nc1ccccc1OC(CCc1ccc(Cl)cc1)Cn1ccnc1", "note": "(configuration not stated)", "melting point": "151 to 152"}, {"smiles": "Cc1c(O)ccc2c1OCC1c3ccccc3OC21", "note": "(configuration not stated)", "melting point": "160 to 162"}, {"smiles": "CCN1CCN(Cc2ccc(C(=O)Nc3ccc(C)c(Nc4nccc(-c5cccnc5)n4)c3)cc2)CC1", "melting point": 210}, {"smiles": "CCOC(=S)Nc1cccc(-c2ccnc3c(C(=O)c4cccs4)cnn23)c1", "melting point": "209 to 211"}, {"smiles": "O=c1cc(-c2ccncc2)nc2n(CCCc3c[nH]c4ccccc34)ccn12", "melting point": "201 to 203"}, {"smiles": "Nc1nc(Cl)nc2c1ncn2C1CCCCC1", "melting point": "206 to 209"}, {"smiles": "CCOC(=O)c1c(C(C)C)nc2c(c(C)nn2C)c1-c1ccc(F)cc1", "melting point": "68 to 71"}, {"smiles": "CCOC(=O)c1c(N2CCN(C(=O)c3cccs3)CC2)c2cccnc2n(CCN(C)C)c1=O", "melting point": 134}, {"smiles": "COc1ccc(C(=O)N2c3ccccc3[C@H](N(C)c3ccccc3)C[C@@H]2C)cc1OC", "note": "(relative stereo)", "melting point": "180 to 181"}, {"smiles": "CN1C[C@H](CN2CCN(C(c3ccccc3)c3ccccc3)CC2)C=C2c3cccc4c3c(cn4C)C[C@H]21", "melting point": "172 to 175"}, {"smiles": "O=C(NCCCc1ccccc1)Oc1ccccc1", "melting point": "55 to 56"}, {"smiles": "CCOc1cc2c(=O)[nH]cnc2cc1OC(C)C", "melting point": "204 to 205"}, {"smiles": "CCN(CC)CC/C=C/c1ccc2c(Nc3ccc(Sc4nccn4C)c(Cl)c3)c(C#N)cnc2c1", "melting point": "200 to 210"}, {"smiles": "COC(=O)C1(NC(=O)Cc2cc(C)ccc2C)CCN(OC)CC1", "melting point": "91 to 93"}, {"smiles": "Cc1nc2c(OCc3cc(N(C)S(C)(=O)=O)ccc3Cl)cccn2c1Br", "melting point": "158 to 162"}, {"smiles": "Cc1cc(C)n(-c2nc(Nc3cccc(C(F)(F)F)c3)c3ccccc3n2)n1", "melting point": "233 to 240"}, {"smiles": "COc1c(NC(=O)Nc2ccc(-c3ccc(CN4CCOCC4)nc3)c3ccccc23)cc(C(C)(C)C)cc1NS(=O)(=O)c1ccccc1", "melting point": "206 to 207"}, {"smiles": "OC(Cn1cncn1)(c1ccc(F)cc1F)C(c1ccc(OCc2ccccc2)cc1)n1cncn1", "note": "(configuration not stated)", "melting point": "144 to 147"}, {"smiles": "c1ccc(N(c2ccccc2)c2ccc(-c3ccc(-c4ccnc(C5Cc6ccccc6N5)n4)cc3)cc2)cc1", "note": "(configuration not stated)", "melting point": "247 to 248"}, {"smiles": "CN1CCC(=C2c3ccccc3COc3ccc(C#N)cc32)CC1", "melting point": "134 to 136"}, {"smiles": "NCc1cccc2ccc(C(=O)O)cc12", "melting point": "223 to 225"}, {"smiles": "COc1ccc(Sc2ccc([N+](=O)[O-])cc2[N+](=O)[O-])c(N)c1", "melting point": "169 to 172"}, {"smiles": "CC(=O)Nc1ccc2c(c1)cc(C(=O)O)n2Cc1ccc(Cl)c(Cl)c1", "melting point": "245 to 246"}, {"smiles": "N#Cc1ccc(OCc2ccnnc2)cc1OC(C(=O)O)c1ccccc1Cl", "note": "(racemic)", "melting point": "203 to 205"}, {"smiles": "COC(=O)c1ccc(OC(=O)c2cccc(C(=O)Oc3ccc(C(=O)OC)cc3)c2)cc1", "melting point": "215 to 217"}, {"smiles": "CCn1c(=O)c2c(nc(C=Cc3cc(OC)ccc3S(=O)(=O)O)n2C)n(CC)c1=O", "melting point": "209 to 210"}, {"smiles": "O=C(Cc1ccccc1)N1CCN(c2ccc(Cl)cc2)CC1", "melting point": "93 to 94"}, {"smiles": "O=C1c2ccccc2C(=O)N1Cc1cnccn1", "melting point": "141 to 143"}, {"smiles": "CCOC(=O)C(c1ccc(CN2CCOCC2)cn1)c1cc(C#N)ccc1[N+](=O)[O-]", "note": "(configuration not stated)", "melting point": "83 to 84"}, {"smiles": "CC(=O)Nc1cccc(NC(=O)NC2N=C(c3ccccc3F)c3ccccc3N(CC(=O)N3CC4CCC(CC4)C3)C2=O)c1", "note": "(racemic)", "melting point": "207 to 215"}, {"smiles": "CCC1CN(O)CCN1O", "note": "(configuration not stated)", "melting point": 137}, {"smiles": "O=c1[nH]c2ccccc2c2c(C(O)CC3CCCCC3)n(-c3ccccc3)nc12", "note": "(configuration not stated)", "melting point": "254 to 259"}, {"smiles": "Cc1ccc(C(=O)O)c2c1CCCO2", "melting point": 140}, {"smiles": "COc1ccc2nc(S(=O)Cc3nccc(OCC(F)(F)F)c3OC)[nH]c2c1", "note": "(configuration not stated)", "melting point": "36 to 46"}, {"smiles": "Cc1nc(C)c(-c2ccnc(Nc3ccc(N4CCCCC4)c(C)c3)n2)s1", "melting point": "159 to 160"}, {"smiles": "CON=C1CCCCC1n1nc(-c2c(-c3ccccc3)nn3ccccc23)ccc1=O", "note": "(configuration not stated)", "melting point": "85 to 87"}, {"smiles": "COC(=O)CCC(=O)c1ccc(OC)c(CCl)c1", "melting point": "78 to 80"}, {"smiles": "COC(=O)c1nn(-c2cccc(NC(C)=O)c2)c(=O)n(Cc2ccc(Cl)cc2)c1=O", "melting point": 193}, {"smiles": "CCC1Cc2cc(OCC(=O)O)c(C)c(C)c2C1=O", "note": "(configuration not stated)", "melting point": 206}, {"smiles": "c1ccc2c(c1)OCCc1c-2n(Cc2ccc(OCCCN3CCCCC3)cc2)c2ccccc12", "melting point": "129 to 130"}, {"smiles": "COc1ccc(-c2nc(CSCCO)nc3cc(OC)c(OC)cc23)cc1OC", "melting point": "154 to 155"}, {"smiles": "CC(C)(CCC(=O)O)C(=O)Oc1cc(Cl)ccc1Oc1ccc(Cl)cc1Cl", "melting point": "125 to 128"}, {"smiles": "C[C@@H](O)CNC1=NS(=O)(=O)c2sc(Cl)cc2N1", "melting point": "210 to 211"}, {"smiles": "CC12CCC3C4CCC(=O)C=C4CCC3C1CCC2CO", "note": "(configuration not stated)", "melting point": "115 to 118"}, {"smiles": "O=c1cc(CO)n2c(n1)COc1ccccc1-2", "melting point": "235 to 237"}, {"smiles": "CN1CCN(c2cccc(-c3cnn4c(N)c(Cc5cccc(Br)c5)cnc34)c2)CC1", "melting point": "170 to 171"}, {"smiles": "CCCN(CO)c1nc(NCc2ccccc2)c2nc(Cl)n(C(C)C)c2n1", "melting point": "220 to 223"}, {"smiles": "CC(=O)NCC1(N2CCCCC2)CCCCC1", "melting point": 104}, {"smiles": "COc1cc(O)c2c(=O)c(OC)c(-c3ccc(OC(=O)C(C)(C)C)c(OC)c3)oc2c1", "melting point": "163 to 164"}, {"smiles": "COc1cccc(Oc2cccc3c2C2(COc4cc5c(cc42)OCCO5)C(=O)N3C)c1", "note": "(configuration not stated)", "melting point": "166 to 168"}, {"smiles": "CN1CCN(c2ccc(Nc3ncc4cc5ccccc5n4n3)cc2)CC1", "melting point": "217 to 222"}, {"smiles": "O=[N+]([O-])c1cn2c(n1)O[C@@H](COc1ccc(N3CCC(COc4ccc(C(F)(F)F)cc4)CC3)cc1)C2", "melting point": "175 to 180"}, {"smiles": "O=C(CCc1ccncc1)Nc1cccc(-c2ccnc3c(C(=O)c4cccs4)cnn23)c1", "melting point": "176 to 181"}, {"smiles": "CC(C)(C)OC(=O)Nc1sc(-c2cncc(F)c2)nc1I", "melting point": "148 to 149"}, {"smiles": "CCOC(=O)N1C=CC2=NC(C)=NC(N(C)c3ccccc3)N21", "note": "(configuration not stated)", "melting point": 202}, {"smiles": "CON=C(Cn1c(=O)ccc2ccccc21)c1ccc(C)cc1", "melting point": "129 to 132"}, {"smiles": "c1ccc(CCCCNCCOc2cccc3[nH]ccc23)cc1", "melting point": "99 to 101"}, {"smiles": "Cc1c(NC(=O)C(CSC(=O)C(C)C)Cc2ccccc2)cccc1C(=O)O", "note": "(configuration not stated)", "melting point": "178 to 183"}, {"smiles": "CCCCCCS(=O)(=O)c1ccc(S(=O)(=O)CCCCCC)nc1", "melting point": "135 to 136"}, {"smiles": "CCOC(=O)C1=C(CC)Nc2n[nH]cc2C1c1ccccc1OC", "note": "(configuration not stated)", "melting point": 169}, {"smiles": "COCCCNC(=O)c1ccc(-c2cc(-c3c(-c4cccc(C)n4)nc4ccccn34)ccn2)cc1", "melting point": 165}, {"smiles": "O=C(Nc1cn2nc(Sc3nnc4ccccn34)ccc2n1)C1CC1", "melting point": "193 to 195"}, {"smiles": "CCOC(=O)c1ccc(-c2ccc(C=O)cc2)cc1", "melting point": "57 to 59"}, {"smiles": "CCCCCOc1cc(C(=O)O)ccc1OC", "melting point": 125}, {"smiles": "NC(=O)c1ncn2c1[C@@H]1CCN1C(=O)c1c-2cccc1C(F)(F)F", "melting point": "> 300"}, {"smiles": "O=C1CCOc2cc(F)ccc21", "melting point": "61 to 62"}, {"smiles": "CCc1cccc(C)c1N1C(=O)CCN(CC)C1=S", "melting point": "74 to 77"}, {"smiles": "Cc1nc2ccc3c(c2s1)C(=O)CC3", "melting point": "163 to 165"}, {"smiles": "CC1(C)SC(c2ccncc2)NC1C(=O)O", "note": "(configuration not stated)", "melting point": "149 to 151"}, {"smiles": "CC(C)(C)OC(=O)N1CCC[C@H](COc2cccnc2Br)C1", "melting point": "79 to 81"}, {"smiles": "CC(C)CNC(=O)[C@H]1C[C@@H](S(=O)(=O)c2ccc([N+](=O)[O-])cc2)[C@@H](c2ccccc2F)N1", "note": "(racemic)", "melting point": 218}, {"smiles": "COC(NC(C)=O)(C(=O)O)C(Br)Br", "note": "(configuration not stated)", "melting point": "143 to 144"}, {"smiles": "C=C(Cl)Cc1c(Cl)nc(NC=O)nc1Cl", "melting point": "113 to 115"}, {"smiles": "Cn1cc(C2=C(c3c4n(c5ccccc35)CCC(CO)C4)C(=O)NC2=O)c2ccccc21", "note": "(configuration not stated)", "melting point": "262 to 263"}, {"smiles": "CCOC(C(=O)O)c1ccc2c(c1)C(C)(C)CCC2(C)C", "note": "(racemic)", "melting point": "106 to 109"}, {"smiles": "N#Cc1ccc(-c2ccc(OCCCCCCO)cc2)cc1", "melting point": "87 to 89"}, {"smiles": "CC(C)c1cccc(C(C)C)c1NC(=O)CN(CC1(Nc2ccccc2)CCCCC1)C(=O)OC(C)(C)C", "melting point": "125 to 127"}, {"smiles": "CC(=O)Nc1cccc(-c2[nH]c3cccc4c3c2CCNC4=O)c1", "melting point": "300 to 302"}, {"smiles": "O=C1Nc2ccc(F)cc2C1CCCCN1CCN(c2cc(Cl)cc3c2OCCO3)CC1", "note": "(configuration not stated)", "melting point": "146 to 148"}]}]}
